The text below walks through data of article PMC11626117 (Proceedings of the National Academy of Sciences of the …, 2024).

The target in assay [1] is T1, CoaA (Mycobacterium tuberculosis, UniProt P9WPA7). The experiment in a line: ADP-Glo luminescent kinase assay. The format is biochemical. The conditions noted are these: 5 mM ATP, 50 mM HEPES, 25 mM KCl, 20 mM MgCl2, 30 min. On the technique in general: In ADP-Glo the light output rises with the ADP produced.
The target in assay [2] is T1, CoaA.

T1 sequence (P9WPA7 whole entry, looked up): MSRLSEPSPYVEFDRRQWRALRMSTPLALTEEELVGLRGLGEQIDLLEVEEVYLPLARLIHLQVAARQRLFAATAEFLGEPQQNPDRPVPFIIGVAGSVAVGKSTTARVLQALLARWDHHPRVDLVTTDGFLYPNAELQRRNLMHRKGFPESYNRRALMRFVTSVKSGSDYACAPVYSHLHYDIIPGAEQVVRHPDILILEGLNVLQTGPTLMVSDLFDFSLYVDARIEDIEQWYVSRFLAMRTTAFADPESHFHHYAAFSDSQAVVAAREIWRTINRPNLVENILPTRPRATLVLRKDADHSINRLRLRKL

On to `CC(C)(CO)[C@@H](O)C(=O)NCCC(=O)O` [pantothenate], for which the “Michaelis-Menten curve, constant not given” value at CoaA [1] is “CoaA showed robust ATPase activity”.
For `Nc1ncnc2c1ncn2[C@@H]1O[C@H](COP(=O)(O)OP(=O)(O)OP(=O)(O)O)[C@@H](O)[C@H]1O` [ATP], at CoaA [2], the “ADP-Glo luminescent kinase assay” value was “CoaA showed robust ATPase activity”.
